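How tested: cells in 96-well plates exposed to compound for 48 hours at five concentrations. Here, GI50 denotes the concentration required for 50% inhibition of growth.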 The source made the active and inactive calls. Rule as the data show it: active = GI50 up to about 1.1 µM and inactive = higher.
How the values were obtained:
Test in all cases: NCI tumour cell line growth inhibition, 48 h
IGROV-1 = test system: IGROV-1
COLO 205 = test system: COLO 205
OVCAR-8 = test system: OVCAR-8
SF-268 = test system: SF-268
MDA-MB-231 = test system: MDA-MB-231
PC-3 = test system: PC-3
K562 = test system: K562
NCI-H23 = test system: NCI-H23
RXF 393 = test system: RXF 393
SNB-19 = test system: SNB-19
SK-MEL-5 = test system: SK-MEL-5
CCRF-CEM = test system: CCRF-CEM
OVCAR-3 = test system: OVCAR-3
SN12C = test system: SN12C
SNB-75 = test system: SNB-75
HCC 2998 = test system: HCC 2998
MDA-MB-435 = test system: MDA-MB-435
HOP-92 = test system: HOP-92

Measured: GI50

CCOC(=O)c1c(N=C(S)Nc2ccc(Cl)cc2)sc2c1CCN(C)C2
inactive: IGROV-1 > 100 µM | COLO 205 > 100 µM | OVCAR-8 > 100 µM | SF-268 > 100 µM | MDA-MB-231 > 100 µM | PC-3 > 100 µM | K562 61 µM | NCI-H23 > 100 µM | RXF 393 32.7 µM | SNB-19 > 100 µM | SK-MEL-5 > 100 µM | CCRF-CEM 26.9 µM | OVCAR-3 74 µM | SN12C > 100 µM

O=c1[nH]c2nccnc2c2c([N+](=O)[O-])cccc12
inactive: SNB-75 > 100 µM | HCC 2998 > 100 µM | IGROV-1 > 100 µM | COLO 205 > 100 µM | OVCAR-8 > 100 µM | SF-268 > 100 µM | MDA-MB-435 > 100 µM | PC-3 78.9 µM | K562 > 100 µM | NCI-H23 > 100 µM | RXF 393 58.2 µM | SNB-19 > 100 µM | SK-MEL-5 88.3 µM | CCRF-CEM > 100 µM | OVCAR-3 > 100 µM | SN12C > 100 µM

COC(C)(C)C1=CCC(C)CC1 (stereo not given)
inactive: SNB-75 66.1 µM | HCC 2998 > 100 µM | IGROV-1 > 100 µM | COLO 205 > 100 µM | OVCAR-8 > 100 µM | SF-268 > 100 µM | MDA-MB-435 > 100 µM | PC-3 > 100 µM | HOP-92 > 100 µM | NCI-H23 > 100 µM | RXF 393 > 100 µM | SNB-19 > 100 µM | SK-MEL-5 > 100 µM | OVCAR-3 > 100 µM | SN12C > 100 µM

O=C1CN(c2ccc(Cl)cc2)C(=O)CN1NCNN1CC(=O)N(c2ccc(Cl)cc2)CC1=O
inactive: SNB-75 > 100 µM | HCC 2998 > 100 µM | IGROV-1 > 100 µM | COLO 205 > 100 µM | OVCAR-8 > 100 µM | SF-268 > 100 µM | MDA-MB-435 > 100 µM | PC-3 > 100 µM | HOP-92 > 100 µM | NCI-H23 > 100 µM | RXF 393 > 100 µM | SNB-19 > 100 µM | SK-MEL-5 > 100 µM | CCRF-CEM > 100 µM | OVCAR-3 > 100 µM | SN12C > 100 µM

CCC1=C(C)C(=O)N/C1=C\c1[nH]c(C)c([C@H](C)CCN)c1C
inactive: SNB-75 10.1 µM | IGROV-1 17 µM | COLO 205 16.4 µM | OVCAR-8 15.3 µM | SF-268 16.2 µM | MDA-MB-231 17.4 µM | MDA-MB-435 15.3 µM | K562 46.6 µM | HOP-92 14.6 µM | NCI-H23 13.3 µM | SK-MEL-5 17.2 µM | CCRF-CEM 23 µM | OVCAR-3 16 µM | SN12C 16 µM

Cc1ccc(/C(=C/C=C(C#N)C#N)Sc2cc(Cl)ccc2Cl)cc1
inactive: SNB-75 17 µM | IGROV-1 8.41 µM | COLO 205 4.86 µM | OVCAR-8 2.37 µM | SF-268 5.97 µM | MDA-MB-231 3.18 µM | MDA-MB-435 2.43 µM | NCI-H23 3.85 µM | RXF 393 7.29 µM | SNB-19 5.97 µM | SK-MEL-5 12.1 µM | OVCAR-3 3.06 µM | SN12C 3.22 µM

CC1CC(=O)NC2CC1C2(C)C (stereo not given)
inactive: SNB-75 > 100 µM | HCC 2998 > 100 µM | IGROV-1 > 100 µM | COLO 205 > 100 µM | OVCAR-8 > 100 µM | SF-268 > 100 µM | MDA-MB-231 > 100 µM | MDA-MB-435 > 100 µM | K562 > 100 µM | HOP-92 > 100 µM | NCI-H23 > 100 µM | RXF 393 > 100 µM | SNB-19 > 100 µM | SK-MEL-5 > 100 µM | CCRF-CEM > 100 µM | OVCAR-3 > 100 µM | SN12C > 100 µM

— ChEMBL document CHEMBL1201862, “PubChem BioAssay data set” (2004)
